# pIC50: −log10 of the molar value.
# Tested on: guinea pig tracheal ring preparations
# Assay: in vitro relaxation of guinea pig tracheal ring preparations (smooth muscle relaxant activity)
# Assay type: cell-based
# Conditions: Cavia porcellus; relaxation of KCl (20 mM)-contracted tracheal strips, Krebs solution, 37° C.; reversal to pretreatment base line = 100 percent relaxation
# From the text: The compounds of the formula (I) have smooth muscle relaxant activity since they are able to open potassium channels in such tissue. They can be tested for smooth muscle relaxant activity by a method involving measuring the in vitro relaxation of guinea pig tracheal ring preparations as follows:
# Male guinea pigs (500-600 g) were killed by a blow to the head and exsanguinated. The trachea was removed, placed in Krebs solution and cleaned. The trachea was slit through the cartilage along it's longitudinal axis and strips consisting of four adjacent cartilage rings were prepared. The strips were each placed in a water-jacketed organ bath (37° C.) containing Krebs solution and tied to a force-displacementtransducer for the measurement of isometric tension responses. The tissues were equilibrated for 60 minutes under a resting load of 1 g and washed every 15 minutes before the start of each experiment.
# The composition of the Krebs solution was as follows (millimoles):- NaCl (119); KCl (4.7); NaHCO3 (25); KH2 PO4 (1.2); MgSO4 (1.2); CaCl2 (2.5); glucose (11), and indomethacin (2.8 μM) was added to remove the influence of the endogenous prostanoids. The solution was gassed with 95% O2 /5% CO2 and the temperature was kept constant at 37° C.
# After the equilibration period a priming dose of KCl (20 mM) was added to each tissue bath and after a further 20 minutes the tissue was washed. After a further 30 minutes KCl (20 mM) was added to contract each tissue. The relaxant action of a compound of the formula (I) was examined when the maintained contractile response had stabilized. The compounds can be added cumulatively (10^-8 -10^-5 […]) at 5 minute intervals.
# The reversal to pretreatment base line was taken as 100 percent relaxation in these studies and concentration-relaxation curves were constructed in order to obtain IC50 values for potency.
# A selection of the compounds of the preceding Examples was tested for smooth muscle relaxant activity by the method involving measuring the in vitro relaxation of guinea pig tracheal ring preparations as described on pages 31 and 32 of the description.
row,SMILES,pIC50
1,Cn1nnnc1-c1ccc2c(c1)[C@@H](N1CCCCC1=O)[C@H](O)C(C)(C)O2 (relative stereo) [Example 36],7.17
2,CC1(C)Oc2ccc(-c3nnnn3CCc3ccccc3)cc2[C@@H](N2CCCCC2=O)[C@@H]1O (relative stereo) [Example 35],7.40
3,CC1(C)Oc2ccc(-c3nnnn3CCc3ccccc3)cc2C(Oc2ccc(=O)[nH]n2)C1(C)O (centres unmarked) [Example 7],6.36

# The next lines start with the values.
row,pIC50,SMILES
1,6.92,"CCOC(=O)CCCCn1nnnc1-c1ccc2c(c1)[C@@H](Oc1ccc(O)nn1)[C@](C)(O)C(C)(C)O2 [Example 11, (3S,4R)-3,4-dihydro-6-(1-[4-ethoxycarbonylbut-1-yl]-1H-tetrazol-5-yl)-3-hydroxy-4-(3-hydroxypyridazin-6-yl)oxy-2,2,3-trimethyl-2H-benzo[b]pyran]"
2,6.82,Cn1nnnc1-c1ccc2c(c1)[C@@H](Oc1ccc(=O)[nH]n1)[C@](C)(O)C(C)(C)O2 [Example 3]
